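Grown in 96-well plates, cells were treated for 48 hours with each compound at five concentrations. Insufficient inhibition: endpoint recorded as highest concentration tested. The concentration for full growth arrest is given as TGI.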
Legend:
Assay in all cases: DTP human tumour cell line panel, 48 h
786-0 renal = system: 786-0 renal
A498 renal = system: A498 renal
A549 NSCLC = system: A549 NSCLC
ACHN renal = system: ACHN renal
BT-549 breast = system: BT-549 breast
CAKI-1 renal = system: CAKI-1 renal
CCRF-CEM leukemia = system: CCRF-CEM leukemia
COLO 205 colon = system: COLO 205 colon
DU-145 prostate = system: DU-145 prostate
EKVX NSCLC = system: EKVX NSCLC
HCC-2998 colon = system: HCC-2998 colon
HCT-116 colon = system: HCT-116 colon
HCT-15 colon = system: HCT-15 colon
HL-60(TB) leukemia = system: HL-60(TB) leukemia
HOP-62 NSCLC = system: HOP-62 NSCLC
HOP-92 NSCLC = system: HOP-92 NSCLC
HS 578T breast = system: HS 578T breast
HT29 colon = system: HT29 colon
IGROV1 ovarian = system: IGROV1 ovarian
K-562 leukemia = system: K-562 leukemia
KM12 colon = system: KM12 colon
LOX IMVI melanoma = system: LOX IMVI melanoma
M14 melanoma = system: M14 melanoma
MALME-3M melanoma = system: MALME-3M melanoma
MCF7 breast = system: MCF7 breast
MDA-MB-231 breast = system: MDA-MB-231 breast
MDA-MB-435 = system: MDA-MB-435
MDA-N = system: MDA-N
MOLT-4 leukemia = system: MOLT-4 leukemia
NCI-H226 lung = system: NCI-H226 lung
NCI-H23 lung = system: NCI-H23 lung
NCI-H460 lung = system: NCI-H460 lung
NCI-H522 lung = system: NCI-H522 lung
NCI/ADR-RES ovarian = system: NCI/ADR-RES ovarian
OVCAR-3 ovarian = system: OVCAR-3 ovarian
OVCAR-4 ovarian = system: OVCAR-4 ovarian
OVCAR-5 ovarian = system: OVCAR-5 ovarian
OVCAR-8 ovarian = system: OVCAR-8 ovarian
PC-3 prostate = system: PC-3 prostate
RPMI-8226 leukemia = system: RPMI-8226 leukemia
SF-268 CNS = system: SF-268 CNS
SF-295 CNS = system: SF-295 CNS
SF-539 CNS = system: SF-539 CNS
SK-MEL-2 melanoma = system: SK-MEL-2 melanoma
SK-MEL-28 melanoma = system: SK-MEL-28 melanoma
SK-MEL-5 melanoma = system: SK-MEL-5 melanoma
SK-OV-3 ovarian = system: SK-OV-3 ovarian
SN12C renal = system: SN12C renal
SNB-19 CNS = system: SNB-19 CNS
SNB-75 CNS = system: SNB-75 CNS
SW-620 colon = system: SW-620 colon
T-47D breast = system: T-47D breast
TK-10 renal = system: TK-10 renal
U251 CNS = system: U251 CNS
UACC-257 melanoma = system: UACC-257 melanoma
UACC-62 melanoma = system: UACC-62 melanoma
UO-31 renal = system: UO-31 renal
SR leukemia = system: SR leukemia

Measured: TGI

CC(=O)[C@H]1CC[C@@H]2[C@]1(C)CC=C1[C@]23C=C[C@]2(C[C@@H](O)CC[C@]12C)C(C(=O)O)C3C(=O)O (stereo partly specified)
not listed: SR leukemia
> 100 µM: all other assays above

CSCCC(NOC(=O)Cc1ccccc1)P(=O)(O)c1ccccc1 (stereo unspecified)
not listed: 786-0 renal | A498 renal | BT-549 breast | EKVX NSCLC | KM12 colon | MALME-3M melanoma | SF-268 CNS | SF-539 CNS | UACC-62 melanoma
> 100 µM: all other assays above

— PubChem BioAssay (NCI)
